# The source made the active and inactive calls.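 How the source made its calls: active means IC50 half-maximal inhibitory concentration at or below 10 µM; inactive means IC50 above 10 µM.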
# Target: VIM-2 metallo-beta-lactamase (Pseudomonas aeruginosa) (UniProt Q932Y6)
# Test: VIM-2 inhibitor FRET-based artefact check, dose response, artefact control for selective VIM-2 inhibitor project, biochemical, FRET readout, CCF2 substrate (AID 1926)
# Details: purified VIM-2, CCF2 FRET substrate hydrolysis
row,Structure (SMILES),IC50
1,Cc1c(C)c2c(OCC(=O)N[C@@H](C)C(=O)O)cc3c(c2oc1=O)CCC(C)(C)O3,1.54 µM
2,O=C1Nc2cc(C(=O)N3CCC(N4CCCCC4)CC3)ccc2S/C1=C\c1ccccc1,4.51 µM
3,O=c1c2ccccc2cnn1Cc1n[nH]c(=S)n1C1CC2CCC1C2 (centres undefined),9.66 µM
4,Cc1ccc(-c2n[nH]c(=S)n2-c2ccccc2)cc1,inactive
5,CCCCn1c(-c2ccoc2C)n[nH]c1=S,4.25 µM
6,COCC(=O)Nc1nnc(SCC(=O)NCc2cccs2)s1,3.62 µM
7,Cc1ccc(-n2c(-c3nn(C)c(C)c3Cl)n[nH]c2=S)cc1,3.72 µM
8,CCOC(=O)N=S(N)(=O)c1ccccc1 (centres undefined),4.85 µM
9,CC(C)Cn1c(-c2ccco2)n[nH]c1=S,4.37 µM
10,Cc1n[nH]c(C)c1CCCCOc1ccc([N+](=O)[O-])cc1,5.26 µM
11,O=C(CCN1C(=O)/C(=C/c2ccccc2F)SC1=S)NCCCn1ccnc1,4.49 µM
12,O=C(CSc1nnc(NC(=O)c2ccccc2F)s1)NCc1ccc(F)cc1,3.65 µM
13,CSc1nc(SCC(=O)O)c2c3c(sc2n1)COC(C)(C)C3,5.35 µM
14,CC1=C(C(=O)O)N2C(=O)C(NC(=O)c3nn(C)cc3[N+](=O)[O-])C2SC1 (centres undefined),8.54 µM
15,NC(=O)SCC(=O)Nc1ccccc1C(=O)O,5.27 µM
16,Cc1nn(CCc2n[nH]c(=S)n2-c2cccc(Cl)c2)c(C)c1[N+](=O)[O-],4.31 µM
17,O=C(CSc1nnc(NC(=O)c2ccccc2[N+](=O)[O-])s1)NCc1ccco1,2.62 µM
18,CC(C)(C)C(=O)Nc1nnc(CSCc2ccccc2F)s1,1.96 µM
19,CCCCn1c(-c2nn(C)cc2Cl)n[nH]c1=S,1.62 µM
20,S=c1[nH]nc(C2CC2)n1Cc1ccccc1,0.94 µM
21,O=C(O)CC/C(=C\c1cc([N+](=O)[O-])ccc1Cl)c1nc2ccccc2s1,4.17 µM
22,Cc1c(C)c2ccc(OCC(=O)N3CCC[C@@H]3C(=O)O)c(C)c2oc1=O,2.09 µM
23,Cn1c(-c2sccc2OCc2ccc(Cl)cc2Cl)n[nH]c1=S,0.774 µM
24,O=C(CSc1nnc(NC(=O)c2cc(Br)ccc2Cl)s1)NCC1CCCO1 (centres undefined),5.87 µM
25,C=C(c1cccc2ccccc12)P(=O)(O)O,2.17 µM
26,CCCCn1c(-c2sccc2C)n[nH]c1=S,0.961 µM

row,Structure (SMILES),IC50
1,Cc1cccc(C2c3[nH]c4ccccc4c3CCN2C(=O)c2cc(CC(C)C)[nH]c(=O)n2)n1 (centres undefined),2.74 µM
2,CC(C)(C)c1ccc(-c2n[nH]c(=S)n2CCCN2CCOCC2)cc1,6.73 µM
3,O=C(O)C1Sc2[nH]c(=O)sc2C2c3cc(Cl)ccc3OC(=O)C12 (centres undefined),> 59.6 µM (inactive)
4,COc1ccc(-c2cc(C(F)(F)F)nc(N3CCN(C)CC3)n2)cc1,> 59.6 µM (inactive)
5,CCCCc1cc(=O)oc2c3c(cc(OCC(=O)N4CCC[C@H]4C(=O)O)c12)OC(C)(C)CC3,8.93 µM
6,COc1cc2c(cc1OC)C(C)N(C(=O)c1nccnc1C(=O)O)CC2 (centres undefined),5.74 µM
7,CC(C)(C)C(=O)Nc1nnc(SCC(=O)NCc2cccs2)s1,0.874 µM
8,CCc1cc(=O)oc2c(C)c(OCC(=O)N3CCC[C@@H]3C(=O)O)ccc12,8.96 µM
9,S=c1[nH]nc(-c2ccco2)n1Cc1ccccc1,3.51 µM
10,C=CCn1c(C2CC2)n[nH]c1=S,8.36 µM
11,O=C(O)c1ccccc1Sc1ncnc2sc3c(c12)CCC3,3.91 µM
12,O=C(O)C(NC(=O)c1ccccc1)=C(Cl)Cl,7.85 µM
13,CCN(CC)C(=O)CSc1nc2ccc(NC(=O)CSc3nccn3C)cc2s1,3.61 µM
14,O=P(O)(O)c1ccccc1OCCCCCOc1ccccc1P(=O)(O)O,0.862 µM
15,CCCCn1c(-c2nn(C)c(C)c2Cl)n[nH]c1=S,1.99 µM
16,Cc1cc(C)n(-c2nc(SCC(=O)O)c3c4c(sc3n2)COC(C)(C)C4)n1,9.07 µM
17,O=C(CSc1nnc(NC(=O)C2CCCCC2)s1)NCc1ccco1,2.23 µM
18,Cc1c(Cl)c(-c2n[nH]c(=S)n2-c2ccc(F)cc2)nn1C,6.25 µM
19,COc1ccc2[nH]c(C(=O)O)c(CCN3C(=O)c4ccc(C(=O)O)cc4C3=O)c2c1,0.433 µM
20,O=C(O)c1c(C(=O)O)c(-c2ccc(Br)cc2)n2c1CSC2,1.51 µM
21,CC1CCCC(C)N1C(=O)CSc1nnc(NC(=O)c2cccs2)s1 (centres undefined),3.92 µM
22,CC(C)(C)CC(=O)Nc1nnc(SCC(=O)NCc2cccs2)s1,6.64 µM
23,O=C1Nc2cc(C(=O)NCCCN3CCOCC3)ccc2S/C1=C/c1ccccc1F,inactive
24,O=C(CSc1nnc(NC(=O)c2cccc(F)c2)s1)NCc1ccco1,4.55 µM
25,Cc1cc(OCc2cc(C(=O)O)oc2C)c2c3c(c(=O)oc2c1)CCCC3,0.582 µM
26,Cc1ccc(-c2c(C(=O)O)c(C(=O)O)c3n2CSC3)cc1,2.95 µM

row,Structure (SMILES),IC50
1,CCn1c(-c2nn(-c3ccccc3)ccc2=O)n[nH]c1=S,8.57 µM
2,COCC(C)NC(=O)c1cc2cccc([N+](=O)[O-])c2[nH]1 (centres undefined),6.15 µM
3,O=C(O)c1[nH]c2ccc(Cl)cc2c1CCN1C(=O)c2ccccc2C1=O,0.374 µM
4,O=C(CSc1nnc(NC(=O)C2CC2)s1)NCc1ccccc1Cl,4.62 µM
5,Cc1cc(=O)oc2c3c(cc(OCC(=O)N[C@@H](Cc4ccccc4)C(=O)O)c12)OC(C)(C)CC3,7.51 µM
6,CCOC(=O)c1[nH]c(C(=O)O)c(CCC(=O)OC)c1C,5 µM
7,S=c1[nH]nc(-c2ccco2)n1-c1cccc2ccccc12,3.97 µM
8,O=C(CSc1nnc(NC(=O)c2c(F)cccc2F)s1)NCc1ccccc1,3.62 µM
9,S=c1[nH]nc(Cn2c(-c3ccccn3)nc3ccccc32)n1-c1ccc2c(c1)OCCO2,4.03 µM
10,Cc1cccc(-n2c(C)n[nH]c2=S)c1C,8.27 µM
11,Cc1cccc(C(=O)Nc2nnc(SCC(=O)NCc3ccco3)s2)c1,inactive
12,Cc1cc(=O)oc2c3c(cc(OCC(=O)N4CCC[C@H]4C(=O)O)c12)OC(C)(C)CC3,4.93 µM
13,Cn1c(-c2sccc2OCc2ccccc2)n[nH]c1=S,1.2 µM
14,COc1ccccc1C(=O)Nc1nnc(SCC(=O)NCc2ccco2)s1,2.61 µM
15,COc1ccccc1-n1c(-c2ccco2)n[nH]c1=S,5.21 µM
16,CCCc1cc(=O)oc2c3c(cc(OCC(=O)N[C@@H](C)C(=O)O)c12)OC(C)(C)CC3,6.97 µM
17,CCCn1c(C(C)C)n[nH]c1=S,3.48 µM
18,O=C(O)Cn1cccc1C(=O)c1ccccc1,4.04 µM
19,C=C(C)Cn1c(-c2cccs2)n[nH]c1=S,1.39 µM
20,O=[N+]([O-])c1ccc(-c2ccccc2)c([As](=O)(O)O)c1,0.245 µM
21,Cc1ccc(S(=O)(=O)n2[nH]c(=O)cc2NC(=O)c2cccs2)cc1,0.12 µM
22,S=c1[nH]nc(-c2cccs2)n1Cc1ccccc1,0.889 µM
23,O=C(CSc1nnc(NC(=O)c2ccccc2)s1)NCc1ccco1,4.63 µM
24,Cc1cc(OCC(=O)N2CCC[C@@H]2C(=O)O)c2c(C)c(C)c(=O)oc2c1,5.31 µM
25,Fc1ccccc1-c1n[nH]c(=S)n1Cc1ccccc1,4.14 µM
26,COc1cccc(-n2c(CNC(=O)OC(C)(C)C)n[nH]c2=S)c1,7.83 µM

row,Structure (SMILES),IC50
1,S=c1[nH]nc(-c2ccccc2)n1CC1CCCO1 (centres undefined),4.15 µM
2,Cc1ccccc1C(=O)Nc1nnc(SCC(=O)NCc2ccco2)s1,1.12 µM
3,Cc1c(OCC(=O)N2CCC[C@@H]2C(=O)O)ccc2c3c(c(=O)oc12)CCC3,5.43 µM
4,O=c1[nH]c(SCc2n[nH]c(=S)n2-c2ccccc2)nc2sc3c(c12)CCC3,4.2 µM
5,S=c1[nH]nc(-c2ccccc2)n1Cc1ccccc1,8.3 µM
6,Cn1ccnc1SCC(=O)Nc1ccc2nc(SCC(=O)NC3CC3)sc2c1,9 µM
7,O=C(O)c1[nH]c2ccc(Br)cc2c1CCN1C(=O)c2cccc([N+](=O)[O-])c2C1=O,0.716 µM
8,CSC[C@H](NC(=O)COc1cc2c(c3oc(=O)c(C)c(C)c13)CCC(C)(C)O2)C(=O)O,4.21 µM
9,CCCC(=O)Nc1nnc(SCC(=O)NCc2cccs2)s1,4.68 µM
10,S=c1[nH]nc(C2CC2)n1Cc1ccco1,3.76 µM
11,COc1ccccc1-c1n[nH]c(=S)n1Cc1ccco1,6.53 µM
12,O=C(O)c1ccccc1C(=O)c1cccc2ccccc12,3.82 µM
13,O=P(O)(O)c1ccccc1OCc1ccccc1,0.689 µM
14,S=c1[nH]nc(-c2ccc3ccccc3n2)n1-c1ccc2c(c1)OCCO2,7.92 µM
15,CC(=O)c1ccc(-c2ccc(Cn3c(C)nc4cc(N)c(C)nc43)cc2)cc1,6.28 µM
16,CCCc1cc(=O)oc2c3c(cc(OCC(=O)N4CCC[C@H]4C(=O)O)c12)OC(C)(C)CC3,1.73 µM
17,O=c1[nH]c2c(s1)C(c1cccnc1)C1C3CCC(C3)C1S2 (centres undefined),0.0339 µM
18,COc1ccc(-c2n[nH]c(=S)n2-c2ccc3c(c2)OCCO3)cc1OC,2.62 µM
19,S=c1[nH]nc(-c2ccccc2)n1C1C=CCCC1 (centres undefined),4.99 µM
20,O=Cc1c(NCc2ccc(Cl)cc2)c2ccccc2[nH]c1=O,9.8 µM
21,Cc1cc(C(=O)OCC(=O)NC(=O)c2cccn2C)c2ccccc2n1,2.3 µM
22,O=C(c1ccco1)N1N=C(c2ccc(Cl)cc2)CC1c1ccco1 (centres undefined),1.61 µM
23,CC(C)(C)c1ccc(COc2ccsc2C(=O)O)cc1,5.71 µM
24,Cc1c(C)c2c(OCC(=O)N3CCC[C@H]3C(=O)O)cc3c(c2oc1=O)CCC(C)(C)O3,0.525 µM
25,S=c1[nH]nc(-c2cccs2)n1C1CCCCC1,1.31 µM
26,CC1CCCCC1n1c(-c2cccnc2)n[nH]c1=S (centres undefined),4.05 µM

# From PubChem BioAssay AID1926 (The Scripps Research Institute Molecular Screening Center, 2009)
